Experimental findings from patent publication US20230131899A1, “INHIBITORS OF MICROBIALLY INDUCED AMYLOID” (Axial Therapeutics, Inc., priority 2020, published 2023) are described below.

pIC50: −log10 of the molar value. Read-outs that look alike come from different tables or passages of the source.

Assay [1] relates to CsgA gene expression (csgBAC promoter-GFP reporter) in E. coli UTI89. In words: In vitro live cell fluorescent reporter assay of CsgA transcription (Reporter Assay). It counts as cell-based. The conditions noted are these: for IC50: read-out: Reporter Assay Abs IC50 (μM), median Abs IC50 in the CsgA reporter assay. The essentials: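 Compounds at 0.14–100 μM (1% DMSO final) incubated 20 h at 27 °C in YESCA broth with UTI89 carrying a single-copy GFP reporter under the csgBAC intergenic promoter region, inoculum OD600 0.003. Fluorescence normalized to vehicle wells gave IC50 and 50%-of-vehicle concentration; OD600 reduction >10% flagged growth impact.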
On the technique in general: A reporter such as luciferase makes a cellular process visible.

The target in a further assay is T1, E. coli CsgA (Escherichia coli, UniProt P28307).
T1 construct: made in house; host or cells: E. coli NEB 3016 slyD::kan, pET11d
T1 sequence (P28307 23-151): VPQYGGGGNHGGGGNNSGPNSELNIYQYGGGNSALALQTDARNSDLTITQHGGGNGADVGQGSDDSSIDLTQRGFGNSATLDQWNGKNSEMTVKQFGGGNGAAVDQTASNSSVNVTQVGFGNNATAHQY
In words: In vitro ThioflavinT assay of CsgA aggregation (CsgA ThT Assay). Type of assay: biochemical. The essentials: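 Purified C-terminal His-tagged CsgA, monomerised by desalting and 30-kDa filtration, at 2-20 μM with 20-40 μM ThT in 50 mM potassium phosphate pH 7.3, 1% DMSO, compounds 3.125-200 uM; room temperature, fluorescence (ex 438/em 495 nm) read every 15 min. Background-subtracted signal expressed as percent inhibition versus vehicle at 6-6.5 or 8-9 h, or as percent control AUC.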

The mark [2] stands for this setting: Escherichia coli, read-out: Reporter Assay Abs IC50 (activity range), median Abs IC50 in the CsgA reporter assay, class symbol.
Where [3] appears, read: Escherichia coli, N/A = maximum expression reduction is <50% of control.
Setting [4] is: read-out: CsgA ThT Assay (10 μM CsgA) % Control AUC at 1005 minutes, 25 μM (activity range), CsgA 10 μM, black plates, compound 25 μM, 1005 minutes, class symbol.
[5] abbreviates: read-out: CsgA ThT Assay (10 μM CsgA) % Control AUC at 1005 minutes, 25 μM, mean AUC as % of DMSO control, CsgA 10 μM, black plates, compound 25 μM, 1005 minutes.
Where [6] appears, read: read-out: CsgA ThT Assay (10 μM CsgA) % Control AUC at 1005 minutes, 100 μM (activity range), CsgA 10 μM, black plates, compound 100 μM, 1005 minutes, class symbol.
Where [7] appears, read: read-out: CsgA ThT Assay (10 μM CsgA) % Control AUC at 1005 minutes, 100 μM, mean AUC as % of DMSO control, CsgA 10 μM, black plates, compound 100 μM, 1005 minutes.
[8] abbreviates: Escherichia coli, read-out: Reporter Assay Abs IC50, activity range, class symbol.
Where [9] appears, read: read-out: CsgA ThT Assay (2 μM CsgA) % Control Bmax 25 μM, activity range, class symbol, CsgA 2 μM, white plates, compound 25 μM.
Setting [10] is: read-out: CsgA ThT Assay (2 μM CsgA) % Control Bmax 25 μM, mean Bmax as percentage of DMSO control, CsgA 2 μM, white plates, compound 25 μM.
The mark [11] stands for this setting: read-out: CsgA ThT Assay (2 μM CsgA) % Control Bmax 100 μM, activity range, class symbol, CsgA 2 μM, white plates, compound 100 μM.
Setting [12] is: read-out: CsgA ThT Assay (2 μM CsgA) % Control Bmax 100 μM, mean Bmax as percentage of DMSO control, CsgA 2 μM, white plates, compound 100 μM.

In the case of `CCc1c(Cc2cccc3ccccc23)c(-c2cccc(C(F)(F)F)c2)c2n(c1=O)C(C(=O)O)CN(CCCCCO)S2(=O)=O` (stereo not drawn) [Compound 114, 7-ethyl-2-(5-hydroxypentyl)-8-(naphthalen-1-ylmethyl)-6-oxo-9-(3-(trifluoromethyl)phenyl)-3,4-dihydro-2H,6H-pyrido[1,2-e][1,2,5]thiadiazine-4-carboxylic acid 1,1-dioxide], the pIC50 (in general, the IC50 on a negative log10 scale, so that one unit is a factor of ten) in assay [1] (setting [2]) was 5.00 to 5.34. Further, the half-inhibitory concentration (IC50) (in general, the concentration at which inhibition is half-maximal) in assay [1] (setting [3]) was 7 µM. Moreover, the remaining activity at 25 µM is 31 to 60% at E. coli CsgA (setting [4]) and 37% on E. coli CsgA (setting [5]). Further, the remaining activity at 100 µM was 11 to 31% at E. coli CsgA (setting [6]) and 21% on E. coli CsgA (setting [7]).
Consider `CCN1CC(C(=O)O)n2c(c(-c3cccc(C(F)(F)F)c3)c(Cc3cccc4ccccc34)cc2=O)S1(=O)=O` (racemic) [Compound 015, 2-ethyl-8-(naphthalen-1-ylmethyl)-6-oxo-9-(3-(trifluoromethyl)phenyl)-3,4-dihydro-2H,6H-pyrido[1,2-e][1,2,5]thiadiazine-4-carboxylic acid 1,1-dioxide], for which the negative logarithm of the IC50 (pIC50) in assay [1] (setting [2]) is 5.00 to 5.34. In addition, the IC50 in assay [1] (setting [3]) was determined as 8 µM. The remaining activity at 25 µM at E. coli CsgA (setting [4]) was 11 to 31%; on E. coli CsgA (setting [5]) it was 28%. Besides, the remaining activity at 100 µM is 11 to 31% on E. coli CsgA (setting [6]) and 27% at E. coli CsgA (setting [7]).
`O=C(O)C1CN(Cc2ccccc2)c2c(-c3cccc(C(F)(F)F)c3)c(Cc3cccc4ccncc34)c(Cl)c(=O)n21` (stereo not drawn) [Compound 205, 1-benzyl-6-chloro-7-(isoquinolin-8-ylmethyl)-5-oxo-8-(3-(trifluoromethyl)phenyl)-1,2,3,5-tetrahydroimidazo[1,2-a]pyridine-3-carboxylic acid]: the IC50 in assay [1] (setting [3]) was 22.4 µM. The pIC50 in assay [1] (setting [8]) is below 5.00. Besides, the results for the remaining activity at 25 µM on E. coli CsgA (setting [9]) and on E. coli CsgA (setting [10]) were above 60% and 69%, respectively. For the same compound, the remaining activity at 100 µM is 31 to 60% on E. coli CsgA (setting [11]) and 44% on E. coli CsgA (setting [12]).
As to `Nc1c(Cc2cccc3ccccc23)c(-c2cccc(C(F)(F)F)c2)c2n(c1=O)C(C(=O)O)CNS2(=O)=O` (stereo not drawn) [Compound 082, 7-amino-8-(naphthalen-1-ylmethyl)-6-oxo-9-(3-(trifluoromethyl)phenyl)-3,4-dihydro-2H,6H-pyrido[1,2-e][1,2,5]thiadiazine-4-carboxylic acid 1,1-dioxide], the pIC50 in assay [1] (setting [2]) is below 5.00. In assay [1] (setting [3]), the IC50 stood at 17.5 µM. Besides, the remaining activity at 25 µM at E. coli CsgA (setting [4]) is 31 to 60%; on E. coli CsgA (setting [5]) it was 51%. For the same compound, the remaining activity at 100 µM was 11 to 31% on E. coli CsgA (setting [6]) and 12% at E. coli CsgA (setting [7]).
Take `CCc1c(Cc2cccc3ccccc23)c(-c2cccc(C(F)(F)F)c2)c2n(c1=O)C(C(=O)O)CN(CCCCO)S2(=O)=O` (stereo not drawn) [Compound 113, 7-ethyl-2-(4-hydroxybutyl)-8-(naphthalen-1-ylmethyl)-6-oxo-9-(3-(trifluoromethyl)phenyl)-3,4-dihydro-2H,6H-pyrido[1,2-e][1,2,5]thiadiazine-4-carboxylic acid 1,1-dioxide]: the pIC50 in assay [1] (setting [2]) is 5.00 to 5.34. Further, the IC50 in assay [1] (setting [3]) was 4.6 µM. Moreover, the remaining activity at 25 µM was 31 to 60% at E. coli CsgA (setting [4]) and 41% at E. coli CsgA (setting [5]). Besides, the remaining activity at 100 µM on E. coli CsgA (setting [6]) was 11 to 31%; on E. coli CsgA (setting [7]), 24%.
In the case of `C/C=C\c1c(Cc2cccc3ccccc23)c(-c2cccc(C(F)(F)F)c2)c2n(c1=O)C(C(=O)O)CN(C)S2(=O)=O` (stereo not drawn) [Compound 087, (Z)-2-methyl-8-(naphthalen-1-ylmethyl)-6-oxo-7-(prop-1-en-1-yl)-9-(3-(trifluoromethyl)phenyl)-3,4-dihydro-2H,6H-pyrido[1,2-e][1,2,5]thiadiazine-4-carboxylic acid 1,1-dioxide], in assay [1] (setting [2]), the pIC50 is 5.00 to 5.34. Further, the IC50 in assay [1] (setting [3]) worked out at 6 µM. The remaining activity at 25 µM on E. coli CsgA (setting [4]) was 11 to 31%; on E. coli CsgA (setting [5]), 30%. The remaining activity at 100 µM on E. coli CsgA (setting [6]) is 11 to 31%; on E. coli CsgA (setting [7]), 15%.
As for `O=C(O)C1CN(Cc2ccccc2)c2c(-c3cccc(C(F)(F)F)c3)c(Cc3ccnc4ccccc34)c(Cl)c(=O)n21` (stereo not drawn) [Compound 206, 1-benzyl-6-chloro-5-oxo-7-(quinolin-4-ylmethyl)-8-(3-(trifluoromethyl)phenyl)-1,2,3,5-tetrahydroimidazo[1,2-a]pyridine-3-carboxylic acid], the IC50 in assay [1] (setting [3]) was 13.2 µM. Besides, in assay [1] (setting [8]), the pIC50 was below 5.00. Moreover, the figures for the remaining activity at 25 µM on E. coli CsgA (setting [9]) and on E. coli CsgA (setting [10]) were above 60% and 64%, respectively. Further, the remaining activity at 100 µM is 31 to 60% on E. coli CsgA (setting [11]) and 54% on E. coli CsgA (setting [12]).
Consider `CN1CC(C(=O)O)n2c(c(-c3cccc(C(F)(F)F)c3)c(Cc3cccc4ccccc34)c(NC3CCNCC3)c2=O)S1(=O)=O` (stereo not drawn) [Compound 091, 2-methyl-8-(naphthalen-1-ylmethyl)-6-oxo-7-(piperidin-4-ylamino)-9-(3-(trifluoromethyl)phenyl)-3,4-dihydro-2H,6H-pyrido[1,2-e][1,2,5]thiadiazine-4-carboxylic acid 1,1-dioxide], for which the pIC50 in assay [1] (setting [2]) is 5.00 to 5.34. In addition, the IC50 in assay [1] (setting [3]) came out at 5.6 µM. Further, the remaining activity at 25 µM is above 60% on E. coli CsgA (setting [4]) and 90% on E. coli CsgA (setting [5]). Further, the remaining activity at 100 µM on E. coli CsgA (setting [6]) is above 60%; at E. coli CsgA (setting [7]), 65%.
As for `CCCCN1CC(C(=O)O)n2c(c(-c3cccc(C(F)(F)F)c3)c(Cc3cccc4ccccc34)cc2=O)S1(=O)=O` (single isomer, unassigned) [Compound 021b, 2-butyl-8-(naphthalen-1-ylmethyl)-6-oxo-9-(3-(trifluoromethyl)phenyl)-3,4-dihydro-2H,6H-pyrido[1,2-e][1,2,5]thiadiazine-4-carboxylic acid 1,1-dioxide], the pIC50 was 5.35 to 5.89 in assay [1] (read-out: Reporter Assay Abs IC50 (activity range), median Abs IC50 in the CsgA reporter assay, class symbol) and 5.68 in assay [1] (read-out: Reporter Assay Abs IC50, median Abs IC50 in the CsgA reporter assay, N/A = maximum expression reduction is <50% of control). For the same compound, the “CsgA ThT Assay (10 μM CsgA) % Control AUC at 1005 minutes, 25 μM (activity range)” value on E. coli CsgA (CsgA 10 μM, black plates, compound 25 μM, 1005 minutes, class symbol) was “(++) (% control AUC of 31 to 60%)”. Besides, the “CsgA ThT Assay (10 μM CsgA) % Control AUC at 1005 minutes, 100 μM (activity range)” value at E. coli CsgA (CsgA 10 μM, black plates, compound 100 μM, 1005 minutes, class symbol) is “(+) (% control AUC of greater than 60%)”. The “CsgA ThT Assay (10 μM CsgA) % Control AUC at 1005 minutes, 25 μM” value on E. coli CsgA (mean AUC as % of DMSO control, CsgA 10 μM, black plates, compound 25 μM, 1005 minutes) was 36%. In addition, on E. coli CsgA (mean AUC as % of DMSO control, CsgA 10 μM, black plates, compound 100 μM, 1005 minutes), the “CsgA ThT Assay (10 μM CsgA) % Control AUC at 1005 minutes, 100 μM” value is recorded as 99%.
Take `CCCN1CC(C(=O)O)n2c(c(-c3cccc(C(F)(F)F)c3)c(Cc3cccc4ccccc34)c(CC(C)C)c2=O)S1(=O)=O` (stereo not drawn) [Compound 139, 7-isobutyl-8-(naphthalen-1-ylmethyl)-6-oxo-2-propyl-9-(3-(trifluoromethyl)phenyl)-3,4-dihydro-2H,6H-pyrido[1,2-e][1,2,5]thiadiazine-4-carboxylic acid 1,1-dioxide]: in assay [1] (setting [3]), the IC50 came to 2.5 µM. The pIC50 in assay [1] (setting [8]) is 5.35 to 5.89. Also, the results for the remaining activity at 25 µM on E. coli CsgA (setting [9]) and on E. coli CsgA (setting [10]) were 31 to 60% and 51%, respectively. In addition, the remaining activity at 100 µM at E. coli CsgA (setting [11]) is 31 to 60%; at E. coli CsgA (setting [12]), 35%.
Take `O=C(O)C1CN(Cc2ccccc2)c2c(-c3cccc(C(F)(F)F)c3)c(Cc3cccc4ncccc34)c(Cl)c(=O)n21` (stereo not drawn) [Compound 211, 1-benzyl-6-chloro-5-oxo-7-(quinolin-5-ylmethyl)-8-(3-(trifluoromethyl)phenyl)-1,2,3,5-tetrahydroimidazo[1,2-a]pyridine-3-carboxylic acid]: in assay [1] (setting [3]), the IC50 is 20.6 µM. Further, in assay [1] (setting [8]), the pIC50 was below 5.00. The results for the remaining activity at 25 µM at E. coli CsgA (setting [9]) and on E. coli CsgA (setting [10]) were above 60% and 85%, respectively. Besides, the remaining activity at 100 µM at E. coli CsgA (setting [11]) is above 60%; on E. coli CsgA (setting [12]) it was 65%.
